Here are results for 21 compounds from patent US5405843A, “Quinoline derivatives” (Mitsui Toatsu Chemicals, Incorporated, priority 1988, dated 1995).

In assay [1] the test system is Adriamycin resistant strain 2780 AD cells of human ovarian cancer A2780 cells. In words: Potentiating effect on incorporation of 3H-vincristine into adriamycin-resistant cancer cells. It counts as cell-based. Conditions: Homo sapiens, 2780AD, 2 h, 20 nM 3H-vincristine, control = 100, read-out: 3H-vincristine accumulation; for activity at 1 µg/mL: compound 1 μg/ml; for activity at 10 µg/mL: compound 10 μg/ml. As for the experimental part: Potentiating Effect of the Compounds on Incorporation of Anticancer Drugs into Drug-resistant Cancer Cells
Adriamycin resistant strain 2780 AD cells of human ovarian cancer A2780 cells (A. M. Rogan et al., Science 224, 994-996, 1984) were suspended at a concentration of 1×10^6 /ml in RPMI-1640 medium supplemented with 5% fetal calf serum, and 1 ml of the cancer cell suspension was dispensed into each well of a multi-well culture plate (24 wells, […] in diameter) and then incubated at 37° C. in an atmosphere of 5% CO2. After 24 hours incubation, the medium in each well was replaced by 0.5 ml of RPMI-1640 medium supplemented containing 20 nM ^3 H-vincristine (1×10^4 dpm/pmol), 5% fetal calf serum and 10 mM Hepes buffer. Five microliters of a solution of the compound to be tested, which had been dissolved in DMSO and diluted with […] (at a concentration of 1.0 microgram/ml or 10.0 micrograms/ml), was added to each well and the incubation was continued at 37° C. in 5% CO2 for 2 hours. The resultant cells were washed in cold saline-phosphate buffer. In each well was added 0.5 ml of 0.2N NaOH, and the resulting cell suspension in each well was independently transferred into a vial and then heated in a water bath at 56° C. for 30-60 minutes to dissolve the cells. After adding 4 ml of acid aquazole 2, the amount of ^3 H-vincristine incorporated into the cells was determined by a fluid scintillation counter.

Assay [2] concerns Vincristine-resistant strain P388/VCR cells of mouse leukemia P388 cells. In words: Potentiating effect on vincristine in mice having vincristine-resistant mouse leukemia (survival). Conditions: peritoneal, once a day for 5 days; for T/C (rate of life prolongation): control = 100. The class given is in vivo, mouse (female CDFI mice).
Setting [3] is: compound 30 mg/kg + vincristine 100 ug/kg.
[4] abbreviates: compound 10 mg/kg + vincristine 100 ug/kg.

As to `CCc1cnc2cccc(OCC(O)CN3CCN(C(c4ccccc4)c4ccccc4)CC3)c2c1` (stereo not shown) [Example 12, 3-Ethyl-5-[3-(4-diphenylmethylpiperazine-1-yl)-2-hydroxypropoxy]quinoline], in assay [1], the activity at 1 µg/mL is 568% and the activity at 10 µg/mL was determined as 831%. In assay [2] (setting [3]), the Average surviving period came out at 12.5 ± 0.5 days and the “T/C (rate of life prolongation)” value is 114%.

For the compound `OC(COc1cccc2ncccc12)CN1CCC(=C(c2ccccc2)c2ccccc2)CC1` (stereo not shown) [Example 13, 5-[3-(4-(Diphenylmethylene)piperidine-1-yl)-2-hydroxypropoxy]quinoline], in assay [1], the activity at 1 µg/mL came out at 517% and the activity at 10 µg/mL amounted to 805%. Also, in assay [2] (setting [3]), the Average surviving period came to 15.3 ± 0.5 days and the “T/C (rate of life prolongation)” value is 139%.

Turning to `OC(COc1cccc2ncccc12)CN1CCN(C(c2ccccc2)c2ccccn2)CC1` (stereo not shown) [Example 15, 5-[2-Hydroxy-3-(4-(phenyl-2-pyridylmethyl)piperazine-1-yl)propoxy]quinoline], the activity at 1 µg/mL in assay [1] was 840%. In addition, in assay [2] (setting [3]), the Average surviving period was determined as 12.3 ± 0.4 days and the “T/C (rate of life prolongation)” value is listed as 117%.

As for `O=C(C(c1ccccc1)c1ccccc1)N1CCN(CC(O)COc2cccc3ncccc23)CC1` (stereo not shown) [Example 16, 5-[3-(4-(2,2-Diphenylacetyl)piperazine-1-yl)-2-hydroxypropoxy]quinoline], in assay [1], the activity at 1 µg/mL was found to be 850% and the activity at 10 µg/mL stood at 982%. In addition, in assay [2] (setting [3]), the Average surviving period is 13.9 ± 1.4 days and the “T/C (rate of life prolongation)” value stood at 132%.

Consider `OC(COc1cccc2ncccc12)CN1CCN(CC(c2ccccc2)c2ccccc2)CC1` (stereo not shown) [Example 17, 5-[3-(4-(2,2-Diphenylethyl)piperazine-1-yl)-2-hydroxypropoxy]quinoline], for which the activity at 1 µg/mL in assay [1] amounted to 730%. In assay [2] (setting [3]), the Average surviving period is 11.8 ± 1.1 days and the “T/C (rate of life prolongation)” value is 115%.

As to `OC(COc1cccc2nc(Cl)ccc12)CN1CCN(C2c3ccccc3CCc3ccccc32)CC1` (stereo not shown) [Example 18, 5-[3-(4-(5-Dibenzosuberanyl)piperazine-1-yl)-2-hydroxypropoxy]-2-chloroquinoline], in assay [1], the activity at 1 µg/mL is 743% and the activity at 10 µg/mL stood at 761%. Further, in assay [2] (setting [3]), the Average surviving period amounted to 13.8 ± 0.4 days and the “T/C (rate of life prolongation)” value was 131%.

Take `OC(COc1cccc2ncccc12)CN1CCN(C2c3ccccc3C=Cc3ccccc32)CC1` (stereo not shown) [Example 20, 5-[3-(4-(5-Dibenzosuberenyl)piperazine-1-yl)-2-hydroxypropoxy]quinoline]: the activity at 1 µg/mL in assay [1] worked out at 794%. Besides, in assay [2] (setting [3]), the Average surviving period stood at 13.7 ± 1.0 days and the “T/C (rate of life prolongation)” value is recorded as 133%.

As for `Cc1cc(C)c2c(OCC(O)CN3CCN(C4c5ccccc5COc5ccccc54)CC3)cccc2n1` (stereo not shown) [Example 21, 2,4-Dimethyl-5-[3-(4-(6,11-dihydrodibenzo[b,e]oxepine-11-yl)piperazine-1-yl)-2-hydroxypropoxy]quinoline], in assay [1], the activity at 1 µg/mL was determined as 727% and the activity at 10 µg/mL came out at 745%. In assay [2] (setting [3]), the Average surviving period amounted to 12.5 ± 0.6 days and the “T/C (rate of life prolongation)” value amounted to 121%.

Take `Cc1cc(C)c2c(OCC(O)CN3CCN(C4c5ccccc5CCc5ccccc54)CC3)cccc2n1` (stereo not shown) [Example 22, 5-[3-(4-(Dibenzosuberane-5-yl)piperazine-1-yl)-2-hydroxypropoxy]-2,4-dimethylquinoline]: in assay [1], the activity at 1 µg/mL worked out at 723% and the activity at 10 µg/mL turned out to be 743%. Moreover, in assay [2] (setting [3]), the Average surviving period was found to be 13.9 ± 0.4 days and the “T/C (rate of life prolongation)” value is reported as 132%.

As for `c1ccc(C(c2ccccc2)N2CCN(CCCOc3cccc4ncccc34)CC2)cc1` [Example 32, 5-[3-(4-Diphenylmethylpiperazine-1-yl)propoxy]quinoline], the activity at 1 µg/mL in assay [1] is 816%. For the same compound, in assay [2] (setting [3]), the Average surviving period is reported as 11.3 ± 0.4 days and the “T/C (rate of life prolongation)” value amounted to 110%.

On to `c1ccc(C(c2ccccc2)N2CCN(CCOc3cccc4ncccc34)CC2)cc1` [Example 34, 5-[2-(4-Diphenylmethylpiperazine-1-yl)ethoxy]quinoline], for which the activity at 1 µg/mL in assay [1] was found to be 785%. Also, in assay [2] (setting [3]), the Average surviving period is 10.8 ± 0.8 days and the “T/C (rate of life prolongation)” value came to 98%.

Regarding `O=C(CCN1CCN(C(c2ccccc2)c2ccccc2)CC1)Nc1cccc2ncccc12` [Example 35, 5-[3-(4-Diphenylmethypiperazine-1-yl)propionamido]-quinoline], in assay [1], the activity at 1 µg/mL came to 654% and the activity at 10 µg/mL was 627%. Moreover, in assay [2] (setting [3]), the Average surviving period came out at 11.9 ± 0.7 days and the “T/C (rate of life prolongation)” value was found to be 116%.

Regarding `O=C(CCN1CCN(C2c3ccccc3CCc3ccccc32)CC1)Nc1cccc2ncccc12` [Example 36], in assay [1], the activity at 1 µg/mL came to 821% and the activity at 10 µg/mL worked out at 716%. For the same compound, in assay [2] (setting [3]), the Average surviving period came out at 12.6 ± 0.9 days and the “T/C (rate of life prolongation)” value was found to be 122%.

As for `OC(COc1cccc2nc(Cl)ccc12)CN1CCN(C(c2ccccc2)c2ccccc2)CC1` (stereo not shown) [Example 41, 2-Chloro-5-[3-(4-diphenylmethylpiperazine-1-yl)-2-hydroxypropoxy]quinoline], in assay [1], the activity at 1 µg/mL is 584%. Moreover, in assay [2] (setting [3]), the Average surviving period turned out to be 13.2 ± 1.8 days and the “T/C (rate of life prolongation)” value worked out at 120%.

`COc1ccc2c(OCC(O)CN3CCN(C(c4ccccc4)c4ccccc4)CC3)cccc2n1` (stereo not shown) [Example 42, 5-[3-(4-Diphenylmethylpiperazine-1-yl)-2-hydroxypropoxy]-2-methoxyquinoline]: the activity at 1 µg/mL in assay [1] stood at 624%. In addition, in assay [2] (setting [3]), the Average surviving period is recorded as 13.9 ± 2.4 days and the “T/C (rate of life prolongation)” value was found to be 126%.

Regarding `OC(COc1cccc2cnccc12)CN1CCN(C2c3ccccc3CCc3ccccc32)CC1` (stereo not shown) [Example 44, 5-[3-(4-(Dibenzosuberane-5-yl)piperazine-1-yl)-2-hydroxypropoxy]isoquinoline], in assay [1], the activity at 1 µg/mL is 636% and the activity at 10 µg/mL is 934%. Besides, in assay [2] (setting [4]), the Average surviving period is 12.5 ± 0.0 days and the “T/C (rate of life prolongation)” value amounted to 112%. In assay [2] (setting [3]), the Average surviving period was 13.8 ± 1.0 days and the “T/C (rate of life prolongation)” value is 123%.

Regarding `Cc1cc(C)c2c(OCC(O)CN3CCN(C(=O)C(c4ccccc4)c4ccccc4)CC3)cccc2n1` (stereo not drawn) [Example 53, 2,4-Dimethyl-5-[3-((α,α-diphenylacetyl)piperazine-1-yl)-2-hydroxypropoxy]quinoline], in assay [1], the activity at 1 µg/mL was determined as 658% and the activity at 10 µg/mL is 794%. Moreover, in assay [2] (setting [3]), the Average surviving period amounted to 11.8 ± 0.8 days and the “T/C (rate of life prolongation)” value stood at 111%.

Turning to `Cc1cc(C(F)(F)F)nc2cccc(OCC(O)CN3CCN(C(=O)C(c4ccccc4)c4ccccc4)CC3)c12` (stereo not drawn) [Example 55, 2-Trifluoromethyl-4-methyl-5-[3-(4-(α,α-diphenylacetyl)piperazine-1-yl)-2-hydroxypropoxy]quinoline], in assay [1], the activity at 1 µg/mL is 452% and the activity at 10 µg/mL was found to be 756%. Further, in assay [2] (setting [3]), the Average surviving period is on record as 12.7 ± 0.3 days and the “T/C (rate of life prolongation)” value is listed as 120%.

Take `OC(COc1cccc2ncccc12)CN1CCN(C(c2ccc(F)cc2)c2ccc(F)cc2)CC1` (stereo not shown) [Example 57, 5-(3-[4-(Bis(4-fluorophenyl)methyl)piperazine-1-yl]-2-hydroxypropoxy)quinoline]: in assay [1], the activity at 1 µg/mL was 572% and the activity at 10 µg/mL amounted to 732%. In assay [2] (setting [3]), the Average surviving period worked out at 13.1 ± 0.4 days and the “T/C (rate of life prolongation)” value is on record as 124%.

For the compound `OC(COc1cccc2ncccc12)CN1CCN(C(c2ccccc2)c2ccc(Cl)cc2)CC1` (stereo not shown) [Example 58, 5-(3-[4-((4-Chlorophenyl)-phenylmethyl)piperazine-1-yl]-2-hydroxypropoxy)quinoline], in assay [1], the activity at 1 µg/mL was 619% and the activity at 10 µg/mL was found to be 843%. Moreover, in assay [2] (setting [3]), the Average surviving period is 13.8 ± 1.8 days and the “T/C (rate of life prolongation)” value is 130%.

As to `COc1ccc(C(c2ccc(OC)cc2)N2CCN(CC(O)COc3cccc4ncccc34)CC2)cc1` (stereo not shown) [Example 59, 5-(3-[4-(Bis-(4-methoxyphenyl)methyl)piperazine-1-yl] -2-hydroxypropoxy)quinoline], in assay [1], the activity at 1 µg/mL came to 561% and the activity at 10 µg/mL was found to be 685%. Moreover, in assay [2] (setting [3]), the Average surviving period worked out at 13.2 ± 1.2 days and the “T/C (rate of life prolongation)” value is 125%.
